Measured values reported in patent US20220257552A1, “METHODS OF PRESCREENING AND TREATING BREAST CANCERS WITH SELECTIVE ANDROGEN RECEPTOR MODULATORS” (priority 2021, published 2022).
“And” between values parts separate entries of the source, which are not always exact repeats. Identical values can stand only once.

Assays:
HCI-13 tumors = assay: Affymetrix microarray of HCI-13 PDX tumors; design: species or system mice; details: mouse, in vivo
Protocol: RNA from tumors was extracted and verified qualitatively and quantitatively. Total RNA (200 ng/sample; n=4/group) from each sample was amplified and labeled using the WT Plus Kit from Affymetrix and processed according to Affymetrix protocol. The arrays (Human ST2.0, Affymetrix, Santa Clara, Calif.) were washed and stained on Affymetrix Fluidics station 450 and scanned on an Affymetrix GCS 3000 scanner.
Data from microarrays were normalized using Affymetrix Expression Console. Mean, Standard Deviation, and Variance were calculated across the groups. Fold Change from vehicle-treated samples was calculated, and a fold change of 1.5 was used as cutoff Student's t-test was used to determine the significance and a cutoff of p value<0.05 was used for significance discovery. False discovery rate was calculated using Benjamini & Hochberg method, and a cutoff for FDR<0.05 was used to create a significant differential expression list. The gene candidate list was loaded to Ingenuity Pathway Analysis and gene set enrichment analysis (GSEA) performed for further discovery. Microarray experiments were performed at the UTHSC Molecular Resources Center (MRC), and data analysis was performed by the UTHSC Molecular Bioinformatics (mBio) core facility.

[1] = tested on: ER-positive metastatic breast cancer; assay: Phase 2 trial G200801, 9 mg daily, ER-positive metastatic breast cancer; assay type: in vivo, human
Source text: The goal of this study was to determine the importance of the AR status as a therapeutic target in women with ER-positive metastatic breast cancer (MBC) that had previously responded to hormone therapy. The treatment was continued until disease progression (PD).
CBR will be correlated with AR status of metastatic tumor biopsy.
Female subjects with ER-positive metastatic breast cancer who have previously been treated with up to 3 prior hormonal therapies for the treatment of breast cancer. Subjects must have been treated with and responded to previous adjuvant therapy for ≥3 years or hormonal therapy for metastatic disease for ≥6 months prior to progression. Details of subject selection criteria are presented below:
The primary efficacy analysis was the clinical benefit in subjects with AR-positive breast cancer at 6 months as measured by a modified Response Evaluation Criteria in Solid Tumors (RECIST 1.1) classification. Key secondary endpoints of clinical benefit in all subjects and AR-negative subjects, as well as objective response rate, progression free survival, time to progression, duration of response, incidence of SREs, and time to first SRE in subsets based on AR status (i.e., all subjects, AR-positive subjects, and AR-negative subjects) was also assessed. Effects on CA 27-29, PSA, bone turnover markers, QOL, and libido were assessed as tertiary endpoints.
Clinical benefit in a subject is defined as a complete response [CR], a partial response [PR] or stable disease [SD] as measured by modified RECIST 1.1, which is described in detail below. (Eisenhauer E A et al. New response evaluation criteria in solid tumors: revised RECIST guideline (version 1.1). European Journal of Cancer 45:228-247, 2009).
For subjects with non-measurable (non-target) disease only at baseline, SD was defined as those with non-CR/non-PD combined response. The primary endpoint of the study was to assess the proportion of subjects with clinical benefit (PCB) at 6 months (CR+PR+SD) in subjects with AR-positive breast cancer.

AR = molecular target: T1, AR (Homo sapiens, UniProt P10275); details: cited from earlier work
T1 sequence (P10275 1-920): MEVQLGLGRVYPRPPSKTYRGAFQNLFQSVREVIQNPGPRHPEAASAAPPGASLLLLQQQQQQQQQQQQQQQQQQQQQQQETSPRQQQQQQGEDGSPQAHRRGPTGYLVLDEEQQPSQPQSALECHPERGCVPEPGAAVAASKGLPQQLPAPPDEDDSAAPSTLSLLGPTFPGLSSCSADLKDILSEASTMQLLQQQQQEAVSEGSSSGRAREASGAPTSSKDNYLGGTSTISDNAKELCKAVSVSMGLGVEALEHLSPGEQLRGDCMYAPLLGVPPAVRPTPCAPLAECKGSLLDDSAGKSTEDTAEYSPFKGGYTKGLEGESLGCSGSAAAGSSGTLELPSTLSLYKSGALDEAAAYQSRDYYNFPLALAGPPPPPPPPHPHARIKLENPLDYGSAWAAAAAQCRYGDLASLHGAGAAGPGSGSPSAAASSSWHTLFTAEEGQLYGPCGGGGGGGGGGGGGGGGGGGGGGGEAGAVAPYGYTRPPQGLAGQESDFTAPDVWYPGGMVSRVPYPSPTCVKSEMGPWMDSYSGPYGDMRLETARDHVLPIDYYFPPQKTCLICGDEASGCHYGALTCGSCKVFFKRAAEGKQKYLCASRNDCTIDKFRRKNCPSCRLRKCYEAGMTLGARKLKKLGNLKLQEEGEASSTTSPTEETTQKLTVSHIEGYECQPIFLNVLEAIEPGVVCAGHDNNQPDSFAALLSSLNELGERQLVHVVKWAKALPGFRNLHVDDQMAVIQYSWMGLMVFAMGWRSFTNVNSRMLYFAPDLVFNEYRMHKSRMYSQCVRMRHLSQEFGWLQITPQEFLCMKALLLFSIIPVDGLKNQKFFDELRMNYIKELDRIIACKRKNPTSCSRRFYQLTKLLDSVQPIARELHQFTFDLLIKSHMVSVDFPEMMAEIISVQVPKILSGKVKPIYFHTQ

Question: Which “members of histone group inhibited” value (HCI-13 tumors) does the source give for C[C@](O)(COc1ccc(C#N)cc1)C(=O)Nc1ccc(C#N)c(C(F)(F)F)c1 [Formula IX, (S)—N-(4-Cyano-3-(trifluoromethyl)phenyl)-3-(4-cyanophenoxy)-2-hydroxy-2-methylpropanamide] here?
Answer: The value was “About 17”.

Question: And the “AR-positive patients with clinical benefit at 6 months (primary endpoint)” value ([1]; 9 mg daily)?
Answer: Its value is 6/17.

Question: What about the “CR or PR” value ([1]; 9 mg daily) of the same compound?
Answer: The value was “no CR or PR has been observed”.

Question: And the “median duration of SD as best response” value ([1]; 9 mg daily)?
Answer: Its value is 212 days.

Question: What about the “patients with PSA increase” value ([1]; 9 mg daily) of the same compound?
Answer: The value was 20 of the 22.

Question: And the tolerability ([1]; 9 mg daily)?
Answer: The tolerability was “well-tolerated”.

Question: What about the “subjects with clinical benefit (SD) at 6 months” value ([1]; 9 mg once daily, all subjects) of the same compound?
Answer: Its value is “Seven out of twenty-two”.

Question: And the tolerability ([1]; 9 mg, no virilization, hematocrit increase or liver toxicity)?
Answer: The tolerability was “well tolerated”.

Question: What about the A-fib ([1]; AE count, 9 mg daily) of the same compound?
Answer: Its A-fib is 1.

Question: What about the anxiety/emotional changes ([1]; AE count, 9 mg daily) of the same compound?
Answer: Its anxiety/emotional changes is 5.

Question: What about the arthralgia ([1]; AE count, 9 mg daily) of the same compound?
Answer: The arthralgia was 6.

Question: What about the bloating ([1]; AE count, 9 mg daily) of the same compound?
Answer: The bloating was 2.

Question: And the bruising ([1]; AE count, 9 mg daily)?
Answer: Its bruising is 1.

Question: And the cellulitis ([1]; AE count, 9 mg daily)?
Answer: Its cellulitis is 1.

Question: And the chills ([1]; AE count, 9 mg daily)?
Answer: The chills was 1.

Question: And the constipation ([1]; AE count, 9 mg daily)?
Answer: Its constipation is 2.

Question: What about the cough ([1]; AE count, 9 mg daily) of the same compound?
Answer: The cough was 1.

Question: And the dehydration ([1]; AE count, 9 mg daily)?
Answer: The dehydration was 1.

Question: What about the diarrhea ([1]; AE count, 9 mg daily) of the same compound?
Answer: The diarrhea was 3.

Question: What about the dizziness ([1]; AE count, 9 mg daily) of the same compound?
Answer: The dizziness was 2.

Question: What about the dysgeusia ([1]; AE count, 9 mg daily) of the same compound?
Answer: Its dysgeusia is 1.

Question: And the dyspepsia ([1]; AE count, 9 mg daily)?
Answer: The dyspepsia was 1.

Question: What about the dyspnea ([1]; AE count, 9 mg daily) of the same compound?
Answer: The dyspnea was 3.

Question: What about the edema ([1]; AE count, 9 mg daily) of the same compound?
Answer: Its edema is 2.

Question: And the fatigue ([1]; AE count, 9 mg daily)?
Answer: The fatigue was 14.

Question: What about the fever ([1]; AE count, 9 mg daily) of the same compound?
Answer: The fever was 1.

Question: What about the flatulence ([1]; AE count, 9 mg daily) of the same compound?
Answer: The flatulence was 1.

Question: And the glaucoma ([1]; AE count, 9 mg daily)?
Answer: Its glaucoma is 1.

Question: What about the headache ([1]; AE count, 9 mg daily) of the same compound?
Answer: Its headache is 4.

Question: And the “hot flash night sweats” value ([1]; AE count, 9 mg daily)?
Answer: The value was 7.

Question: And the hypertension ([1]; AE count, 9 mg daily)?
Answer: The hypertension was 2.

Question: And the infection ([1]; AE count, 9 mg daily)?
Answer: Its infection is 1.

Question: And the insomnia ([1]; AE count, 9 mg daily)?
Answer: The insomnia was 2.

Question: What about the myalgia ([1]; AE count, 9 mg daily) of the same compound?
Answer: Its myalgia is 5.

Question: What about the nail discoloration ([1]; AE count, 9 mg daily) of the same compound?
Answer: Its nail discoloration is 1.

Question: And the nausea ([1]; AE count, 9 mg daily)?
Answer: The nausea was 11.

Question: What about the pain ([1]; AE count, 9 mg daily) of the same compound?
Answer: The pain was 22.

Question: And the paresthesia ([1]; AE count, 9 mg daily)?
Answer: The paresthesia was 1.

Question: What about the pleural effusion ([1]; AE count, 9 mg daily) of the same compound?
Answer: Its pleural effusion is 1.

Question: And the polyuria ([1]; AE count, 9 mg daily)?
Answer: The polyuria was 1.

Question: And the post menopausal bleeding ([1]; AE count, 9 mg daily)?
Answer: The post menopausal bleeding was 3.

Question: And the stiffness ([1]; AE count, 9 mg daily)?
Answer: Its stiffness is 1.

Question: And the tendonitis ([1]; AE count, 9 mg daily)?
Answer: Its tendonitis is 1.

Question: And the vision changes ([1]; AE count, 9 mg daily)?
Answer: Its vision changes is 3.

Question: What about the vomiting ([1]; AE count, 9 mg daily) of the same compound?
Answer: The vomiting was 2.

Question: What about the weight gain ([1]; AE count, 9 mg daily) of the same compound?
Answer: Its weight gain is 2.

Question: And the weight loss ([1]; AE count, 9 mg daily)?
Answer: Its weight loss is 2.

Question: And the “subjects with CB as best response” value ([1]; all subjects (9/22))?
Answer: Its value is 41%.

Question: What about the “Current Disposition” value ([1]; individual patients) of the same compound?
Answer: Its value is “D/C (2×) and Deceased (4×)”.

Question: And the “Days on Study” value ([1]; individual patients)?
Answer: The value was 255 Days and 105 Days and 7 Days and 18 Days and 158 Days and 308 Days and 52 Days and 63 Days and 230 Days and 84 Days (3×) and 252 Days and 28 Days and 239 Days and 86 Days and 202 Days and 190 Days and 99 Days and 137 Days and 100 Days and 91 Days.

Question: And the “Day 84 RECIST” value ([1]; individual patients, 9 mg daily)?
Answer: Its value is “D/C SAE and PD SAE and D/C”.

Question: And the tumor regression ([1]; one subject with SD)?
Answer: Its tumor regression is 27%.

Question: And the “concentration at which it binds to and activates the AR” value (AR)?
Answer: The value was “less than 10 nM”.
